Target: T1, Peroxisome proliferator-activated receptor gamma (Homo sapiens, UniProt P37231)
T1 sequence (P37231 whole entry): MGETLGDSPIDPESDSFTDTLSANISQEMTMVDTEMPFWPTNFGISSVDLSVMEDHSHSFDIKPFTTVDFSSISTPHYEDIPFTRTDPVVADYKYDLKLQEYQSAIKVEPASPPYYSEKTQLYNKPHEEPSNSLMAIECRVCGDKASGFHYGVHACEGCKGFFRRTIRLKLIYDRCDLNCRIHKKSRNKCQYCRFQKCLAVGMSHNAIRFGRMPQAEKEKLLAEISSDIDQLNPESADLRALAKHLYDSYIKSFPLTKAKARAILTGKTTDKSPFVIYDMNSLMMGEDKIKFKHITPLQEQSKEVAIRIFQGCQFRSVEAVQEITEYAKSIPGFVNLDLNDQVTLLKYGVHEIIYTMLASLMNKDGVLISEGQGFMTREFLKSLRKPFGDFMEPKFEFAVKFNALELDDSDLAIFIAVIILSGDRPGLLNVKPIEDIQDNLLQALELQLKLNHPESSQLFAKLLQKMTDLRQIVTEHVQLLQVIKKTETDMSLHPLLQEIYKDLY
Assay: Pharmacological In Vitro Assay
Conditions: pH 8.2; 4 °C
Procedure: Binding assays were performed in 96-well plate format, using a classical filtration assay with a human full length PPARγ construct (GST-PPAR LBD (25 μg/mL)) expressed in bacteria with some modifications regarding the conditionsof the experiments. The membrane-associated PPARγ was used as the biological source as previously described. Binding buffer consisted of 10 mM Tris/HCl, pH 8.2, containing 50 mM KCl and 1 mM dithiothreitol. Membrane preparations (5 μg/mL) were incubated for 180 min at 4°C in the presence of [3H]rosiglitazone (BRL49653, Amersham) (4 nM) and the tested compounds. Nonspecific binding was defined using an excess of unlabeled rosiglitazone (10 μM). Incubation was terminated by the addition of ice-cold 50 mM Tris/HCl buffer pH 7.4, followed by rapid filtrationunder reduced pressure through Whatman GF/C filter plates presoaked with ice-cold buffer, followed by three successive washes with the same buffer. Radioactivity was measured in a TopCount apparatus (Packard).

Compound	Ki [µM]
CCCCCCCCOc1nc2ccccc2cc1C(O)CC#CCCCC(=O)OC (centres undefined) [8-Hydroxy-8-(2-octyloxy-quinolin-3-yl)-oct-5-ynoic acid methyl ester (8c)]	> 10
CCCCCOc1nc2c(ccc3ccccc32)cc1C(O)CC#CCCCC(=O)OC (centres undefined) [8-Hydroxy-8-(2-pentyloxy-benzo[h]quinolin-3-yl)-oct-5-ynoic acid methyl ester (26b)]	> 10
CCCCCOc1nc2ccccc2cc1C(O)CC#CCCCC(=O)NCCO (centres undefined) [8-Hydroxy-8-(2-pentyloxy-quinolin-3-yl)-oct-5-ynoic acid (2-hydroxy-ethyl)-amide (14a)]	> 10
CCCCCOc1nc2ccccc2cc1C(O)CC#CCCCC(=O)OC (centres undefined) [8-Hydroxy-8-(2-pentyloxy-quinolin-3-yl)-oct-5-ynoic acid methyl ester]	> 10
COCCCOc1nc2ccccc2cc1C(O)CC#CCCCC(=O)OC (centres undefined) [8-Hydroxy-8-[2-(3-methoxy-propoxy)-quinolin-3-yl]-oct-5-ynoic acid methyl ester (8d)]	> 10
COC(=O)CCCC#CCC(O)c1cc2ccccc2nc1OCCCC(F)(F)F (centres undefined) [8-Hydroxy-8-[2-(4,4,4-trifluoro-butoxy)-quinolin-3-yl]-oct-5-ynoic acid methyl ester (8e)]	> 10
COc1nc2ccccc2cc1C(O)CC#CCCCC(=O)O (centres undefined) [Sodium 8-hydroxy-8-(2-methoxy-quinolin-3-yl)-oct-5-ynoate (9b)]	> 10
CCCCCCCCOc1nc2ccccc2cc1C(O)CC#CCCCC(=O)O (centres undefined) [Sodium 8-hydroxy-8-(2-octyloxy-quinolin-3-yl)-oct-5-ynoate (9c)]	0.378
CCCCCOc1nc2c(ccc3ccccc32)cc1C(O)CC#CCCCC(=O)O (centres undefined) [Sodium 8-hydroxy-8-(2-pentyloxy-benzo[h]quinolin-3-yl)-oct-5-ynoate (27b)]	> 10
CCCCCOc1nc2ccc(OC)cc2cc1C(O)CC#CCCCC(=O)O (centres undefined) [Sodium 8-hydroxy-8-(6-methoxy-2-pentyloxy-quinolin-3-yl)-oct-5-ynoate (27a)]	0.583
COCCCOc1nc2ccccc2cc1C(O)CC#CCCCC(=O)O (centres undefined) [Sodium 8-hydroxy-8-[2-(3-methoxy-propoxy)-quinolin-3-yl]-oct-5-ynoate (9d)]	> 10
O=C(O)CCCC#CCC(O)c1cc2ccccc2nc1OCCCC(F)(F)F (centres undefined) [Sodium 8-hydroxy-8-[2-(4,4,4-trifluoro-butoxy)-quinolin-3-yl]-oct-5-ynoate (9e)]	> 10
COc1nc2ccccc2cc1C(O)CC#CCOCC(=O)O (centres undefined) [Sodium [5-hydroxy-5-(2-methoxy-quinolin-3-yl)-pent-2-ynyloxy]-acetate (18b)]	3.81
CCCCCOc1nc2ccccc2cc1C(O)CC#CCOCC(=O)O (centres undefined) [Sodium [5-hydroxy-5-(2-pentyloxy-quinolin-3-yl)-pent-2-ynyloxy]-acetate (18a)]	1.93

From BindingDB's records for doi:10.3109/14756360903468171 (2010)
